From US5726189A, “Method for imaging nicotinic acetylcholinergic receptors in the brain using radiolabeled pyridyl-7-azabicyclo [2.2.1]heptanes” (priority 1996, dated 1998)

Test system: nAChRs in mouse brain
Experiment: regional distribution of [18F]FPH in mouse brain after tail vein injection
Format: in vivo
Description: The utility of [^18 F] FPH as an agent to label, in vivo, nAChRs in mouse brain was tested. Mice received 0.4 μCi of [^18 F]FPH (sp. act >2000 mCi/μmol) by tail vein injection. The regional distribution of the tracer in brain was assessed in the absence and presence of unlabeled epibatidine. […] In in vitro assays, the Ki for unlabeled FPH against nAChRs labeled with [^3 H] epibatidine was approximately 3 pM. […] FPH would be an excellent ligand for imaging nAChRs in living human brain.

[1] = 30 minutes post injection, tail vein, 0.4 μCi

## [18F]c1ccc(C2CC3CCC2N3)cn1 (racemic) [[^18 F]FPH, (±)-exo-2-(2-[^18 F]fluoro-5-pyridyl)-7-azabicyclo[2.2.1]heptane]
[1]
  uptake in cerebellum: < 3 % ID/g
  uptake in cortex: 6.2 % ID/g
  uptake in hippocampus: 6 % ID/g
  uptake in superior colliculus: 10 % ID/g
  uptake in thalamus: 11 % ID/g
Pretreatment with unlabeled epibatidine 20 μg/kg
  binding in all regions after pretreatment with unlabeled epibatidine: ~ 3 % ID/g
